Results: patent US11072616B2, “Cyclic peptides targeting alpha-4-beta-7 integrin” (Zealand Pharma A/S, priority 2015, dated 2021)
Like-named read-outs stand apart in the source and are kept apart here.

Assays:
[1] = In vivo pharmacokinetic assessment, liver; design: species or system CD-1 mice
From the text: In Vivo Pharmacokinetic Assessments in Rodents
The livers will be blotted and weighed.

[2] = system: CD3+CD4+α4β7+ T lymphocytes; experiment: FACS analysis of T lymphocyte populations, 8-day DSS study; assay type: in vivo, C57Bl/6 mice
From the text: Collection of samples. On Day 8, five hours after ET02451-01, ET02452-01 and vehicle dosing, the animals were euthanized by cardiac puncture under general anesthesia, according to the “Guide to the Care and Use of Experimental Animals” published by the CCAC. Blood was transferred in a Sarstedt tube containing EDTA. Mesenteric and peripheral (inguinal, auxiliary and brachial) lymph nodes were collected and transferred on ice in corresponding tubes containing cold PBS. Nodes were kept on ice until tissue preparation.
Cell population labeling. Blood was withdrawn by cardiac puncture and collected on EDTA-coated tubes. Mensenteric lymph nodes (MLN) and peripheral lymph nodes (PLN) were also collected. Mononuclear cells from the tissues will be isolated using density gradient (Lympholyte) and they were stained with fluorescent antibodies. […] After washes, cells were fixed using BD Fix Solution. Percentage of different subpopulations of T lymphocytes were then analysed using FACSCalibur cytometer. Antibodies employed were the same as listed for the single-dose PD studies above.

[3] = In vivo pharmacokinetic assessment, plasma; conditions: naïve mice
Description: (§1) Oral bioavailability of test compounds was conducted by assessing plasma exposure of following one or two oral doses in mice and, in some cases, comparing said plasma exposure with that following a single intravenous dose of the same compound.
(§2) Body weights were recorded on the day of dosing.
(§3) Dosing: The formulation containing the test compound were administered p.o. by gavage with disposable feeding needles.
(§4) Sample processing/storage: All blood samples were transferred into K2EDTA tubes on wet ice and centrifuged within 5 min (3200×g for 5 min at 4° C.) to obtain plasma. Samples were stored frozen at −80° C. until bioanalysis.
(§5) Instrumentation: AB Sciex API 4000 Q-TRAP MS/MS system equipped with an Agilent LC system with a binary pump, a solvent degasser, a thermostatted column compartment, a CTC autosampler and a divert valve installed between the column and mass spectrometer inlet.

DSS-treated mice = experiment: 8-day efficacy study in DSS model (therapeutic) of ulcerative colitis; assay type: in vivo, C57Bl/6 mice; conditions: for reduction of DAI score: Day 8 vs DSS+vehicle; for reduction of lesion length: vs control vehicle treated-group
Description: Animals. Female C57Bl/6 mice (Charles River, St-Constant, Qc), weighting 16-19 g at delivery were used for this study. Following arrival in the animal facility, all animals were subjected to a general health evaluation. An acclimation period of 7-14 days was allowed before the beginning of the study.
Oral dosing of the test article and the vehicle. From Day 5 to Day 8, nacellins and the vehicle were administered as a single slow bolus (over approximately 5 seconds) via oral route (p.o.), according to the procedure of administration of solution by gavage: the animal was firmly restrained. A bulb-tipped gastric gavage needle of 22G was passed through the side of the mouth and was advanced towards the oesophagus. The test articles and the vehicle were dosed orally at 5 mL/kg.
Intraperitoneal dosing of the test articles and the vehicle. On day 5, DATK32 antibody was administered in only on Day 5, as a single slow bolus (over approximately 5 seconds) via the i.p. route. […] Intraperitoneal administration was performed accordingly to the following procedure: the mouse was restrained manually and held with the head and body tilted downward. The tip of the needle (27 G) was inserted through the skin and just past the abdominal wall. A short pull back of the plunger of the syringe was done prior to administration of the solution to make sure that the syringe was not inserted in any abdominal organ (fluid would be pulled back into the syringe in this case).
Inflammation Score. Once the mouse was euthanized, the colon was collected and its length was measured. Lesion length was also measured. Colon inflammation was scored based on severity of oedema and ulceration.
Disease Activity Index (DAI) assessment. Body weight and DAI were measured on Day 5 in order to distribute DSS-treated animals in two uniform groups prior dosing. Specific symptoms associated to UC were scored based on the severity of each particular symptoms: 1—blood in stool (negative hemoccult, positive hemoccult, blood traces in stool visible, rectal bleeding); 2—stool consistency (normal, soft but still formed, very soft, diarrhea); 3—posture and fur (normal; ruffled fur; ruffled fur combined to slight hunched posture and slight dehydration; ruffled fur combined to hunched posture, dehydration and altered walking; moribund (euthanasia is mandatory before the animal reach this point). The overall DAI score was the sum of the three parameters (maximum score 9). Body weight measurement and DAI assessment were performed also on Day 8 to evaluate the effect of the treatments.

[4] = In vivo pharmacokinetic assessment, colon; design: species or system CD-1 mice; conditions: for tmax: colon, naïve mice
[5] = mouse, in vivo
Description: as §1, §2, §3, §4, §5

CC(C)C[C@@H]1NC(=O)c2ccc(-c3ccc(N4CCNCC4)cc3)c(c2)CNC(=O)[C@@H]2CCCN2[C@H](C(=O)NC(C)(C)C)[C@H](C)NC(=O)[C@H]([C@@H](C)O)NC(=O)[C@H](CC(=O)O)NC1=O [ET02451]
tmax ([1]; liver, single i.v. 5 mg/kg, naïve mice): 0.0833 h | bioavailability in the liver ([1]; mouse, in vivo): ~8% | main route of elimination ([1]; mouse, in vivo): hepatobiliary clearance | AUC0-inf ([1]; mouse, in vivo, iv, 5 mg/kg): 8460 ng·h/mL | AUC0-tlast ([1]; mouse, in vivo, iv, 5 mg/kg): 8289 ng·h/mL | MRT0-inf ([1]; mouse, in vivo, iv, 5 mg/kg): 2.00 h | half-life in liver ([1]; mouse, in vivo, po): ~8 h | AUC0-inf ([1]; mouse, in vivo, po, 40 mg/kg): 6054 ng·h/mL | AUC0-tlast ([1]; mouse, in vivo, po, 40 mg/kg): 6024 ng·h/mL | MRT0-inf ([1]; mouse, in vivo, po, 40 mg/kg): 2.11 h | tmax ([1]; mouse, in vivo, po, 40 mg/kg): 2.00 h | CD3+CD4+α4β7+ cell population in mesenteric lymph nodes ([2]; p.o. 40 mg/kg): significant decrease | AUC0-tiast ([3]; single i.v. 5 mg/kg): 778 ng·h/mL | tmax ([3]; single i.v. 5 mg/kg): 4.98 min | Cmax ([3]; single p.o. 40 mg/kg): 4638 ng/mL | reduction of DAI score (DSS-treated mice; oral 40 mg/kg, Day 5 to Day 8): 15% | lesion/colon length (DSS-treated mice; oral 40 mg/kg, vehicle group 40%): 12% | reduction of lesion length (DSS-treated mice; oral 40 mg/kg): significantly reduced the lesion length | tmax ([4]; single i.v. 5 mg/kg): 2.00 h | tmax ([4]; single p.o. 40 mg/kg): 2.00 h | oral bioavailability in colon ([4]; mouse, in vivo): ~100% | AUC0-inf ([4]; mouse, in vivo, iv, 5 mg/kg): 17140 ng·h/mL | AUC0-tlast ([4]; mouse, in vivo, iv, 5 mg/kg): 17109 ng·h/mL | MRT0-inf ([4]; mouse, in vivo, iv, 5 mg/kg): 3.43 h | half-life in colon ([4]; mouse, in vivo, po): greater than 21 hours | AUC0-inf ([4]; mouse, in vivo, po, 40 mg/kg): 145327 ng·h/mL | AUC0-tlast ([4]; mouse, in vivo, po, 40 mg/kg): 130746 ng·h/mL | MRT0-inf ([4]; mouse, in vivo, po, 40 mg/kg): 4.59 h | F ([5]; iv, 5 mg/kg): 100% | elimination half-life in plasma ([5]; po): ~0.5 h | oral bioavailability / absorption (in words) ([5]; po): significant absorption from the gut and systemic exposure following oral dosing | AUC0-tiast ([5]; po, 40 mg/kg): 686 ng·h/mL | F ([5]; po, 40 mg/kg): 11.0%

CC(C)C[C@@H]1NC(=O)c2ccc(-c3ccnc4ccccc34)c(c2)CNC(=O)[C@@H]2CCCN2[C@H](C(=O)NC(C)(C)C)[C@H](C)NC(=O)[C@H]([C@@H](C)O)NC(=O)[C@H](CC(=O)O)NC1=O [ET02452]
CD3+CD4+α4β7+ cell population in mesenteric lymph nodes ([2]; i.p.: ET02452 65 mg/kg, DATK32 15 mg/kg): significant decrease | reduction of DAI score (DSS-treated mice; i.p.: ET02452-01 65 mg/kg Day 5-8, DATK32 15 mg/kg Day 5): 46% | reduction of lesion length (DSS-treated mice; i.p.: ET02452-01 65 mg/kg, DATK32 15 mg/kg Day 5): 20% | reduction of DAI score (DSS-treated mice; oral 40 mg/kg, Day 5 to Day 8): did not have any beneficial effect | reduction of lesion length (DSS-treated mice; oral 40 mg/kg): 53% | oral bioavailability / absorption (in words) ([5]; po): low oral bioavailability
